Data published in BindingDB's records for doi:10.1021/cb900232a (Stanford University, 2010).

Key:
Assay in all cases: Enzyme kinetic assay
Procathepsin L = target: T1, Procathepsin L (Mus musculus, UniProt P06797); conditions: pH 6.25; 25 °C
T1 sequence (P06797 whole entry): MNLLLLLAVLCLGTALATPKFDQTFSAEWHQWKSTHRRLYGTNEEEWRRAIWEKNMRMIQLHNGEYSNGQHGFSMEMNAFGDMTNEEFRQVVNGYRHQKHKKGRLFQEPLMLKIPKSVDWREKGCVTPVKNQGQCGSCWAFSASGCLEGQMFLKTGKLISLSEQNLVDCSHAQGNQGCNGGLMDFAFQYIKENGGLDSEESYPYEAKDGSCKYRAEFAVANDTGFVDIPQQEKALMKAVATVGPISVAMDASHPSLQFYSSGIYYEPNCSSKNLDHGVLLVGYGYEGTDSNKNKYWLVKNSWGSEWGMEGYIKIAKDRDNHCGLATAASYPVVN
Method: (§1) IC50 measurements and enzyme kinetics assays were performed on a Spectramax M5 fluorescent plate reader (Molecular Devices).

Cathepsin B = Cathepsin B (Mus musculus, UniProt P10605); conditions: pH 6.25; 25 °C
Method: as §1

Caspase-3 = target: T2, Caspase-3 (Mus musculus, UniProt P70677); conditions: pH 7.4; 25 °C
T2 sequence (P70677 whole entry): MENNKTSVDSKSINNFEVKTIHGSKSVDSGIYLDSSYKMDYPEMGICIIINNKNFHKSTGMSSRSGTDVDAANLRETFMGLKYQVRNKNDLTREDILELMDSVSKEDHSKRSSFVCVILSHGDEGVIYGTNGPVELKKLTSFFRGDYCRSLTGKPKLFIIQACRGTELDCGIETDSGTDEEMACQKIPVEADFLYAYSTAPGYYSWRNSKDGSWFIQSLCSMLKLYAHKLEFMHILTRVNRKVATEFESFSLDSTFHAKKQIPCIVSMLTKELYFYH
Method: as §1

Legumain = target: T3, Legumain (Mus musculus, UniProt O89017); conditions: pH 5.8; 25 °C
T3 sequence (O89017 whole entry): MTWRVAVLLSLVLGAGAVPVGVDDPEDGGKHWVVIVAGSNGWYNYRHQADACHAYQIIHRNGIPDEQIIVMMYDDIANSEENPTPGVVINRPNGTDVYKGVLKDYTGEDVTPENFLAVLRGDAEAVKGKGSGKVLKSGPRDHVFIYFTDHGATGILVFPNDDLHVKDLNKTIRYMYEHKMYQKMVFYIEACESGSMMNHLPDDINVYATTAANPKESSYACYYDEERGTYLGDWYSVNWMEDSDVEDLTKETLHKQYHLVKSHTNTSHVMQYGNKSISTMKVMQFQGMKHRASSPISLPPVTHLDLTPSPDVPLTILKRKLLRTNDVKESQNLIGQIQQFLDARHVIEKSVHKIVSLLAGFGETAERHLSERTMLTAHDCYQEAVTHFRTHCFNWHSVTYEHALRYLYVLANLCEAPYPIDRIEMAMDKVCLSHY
Method: as §1

Cathepsin B, sequence (P10605 whole entry): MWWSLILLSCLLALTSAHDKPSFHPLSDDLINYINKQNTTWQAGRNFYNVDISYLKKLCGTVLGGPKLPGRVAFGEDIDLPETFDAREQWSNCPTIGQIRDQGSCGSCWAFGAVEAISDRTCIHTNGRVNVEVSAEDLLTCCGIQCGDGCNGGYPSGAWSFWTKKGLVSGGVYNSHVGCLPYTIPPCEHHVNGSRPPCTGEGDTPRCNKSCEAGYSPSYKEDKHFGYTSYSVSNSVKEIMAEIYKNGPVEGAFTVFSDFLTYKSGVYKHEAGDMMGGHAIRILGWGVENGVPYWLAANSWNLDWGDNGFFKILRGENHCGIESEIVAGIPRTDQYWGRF

IC50 (Procathepsin L) [µM] | IC50 (Cathepsin B) [µM] | IC50 (Caspase-3) [µM] | IC50 (Legumain) [µM] | SMILES
2.98 | 0.78 | – | – | CCOC(=O)[C@H]1O[C@@H]1C(=O)N[C@H](C(=O)NCCc1ccc(O)cc1)C(C)CC (stereo partly specified) [CID644294]
220 | 390 | 890 | 0.0115 | CCOC(=O)[C@H]1O[C@@H]1C(=O)N(CC(N)=O)NC(=O)[C@@H]1CCCN1C(C)=O [LI-1]
